The assay deals with T1, Tyk2 (Homo sapiens, UniProt P29597).
T1 construct: 450 ng/ml TYK2 KD (Cama Biosciences 08-147 Lot 06CBS-3022D); purchased Cama Biosciences (so in the source)
T1 sequence (P29597 897-1176 limits assumed): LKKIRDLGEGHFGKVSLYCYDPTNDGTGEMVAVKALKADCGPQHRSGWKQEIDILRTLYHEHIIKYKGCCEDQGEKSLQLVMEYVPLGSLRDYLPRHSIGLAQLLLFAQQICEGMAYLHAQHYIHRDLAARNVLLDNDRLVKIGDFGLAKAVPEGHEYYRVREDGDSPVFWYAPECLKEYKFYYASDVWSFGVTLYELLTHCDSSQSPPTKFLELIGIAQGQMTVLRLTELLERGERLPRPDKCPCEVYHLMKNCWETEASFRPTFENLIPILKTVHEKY
Nature of the assay: Tyk2 HTRF Assay. The format is biochemical. On the procedure:
The following is an example of an assay that can be used to determine the Tyk2 inhibitory activity of a test compound.
25 μl/well DMSO is added to Columns 2 and 14 (except 28.5 μl is added to well P14 of Greiner 384-well polypropylene plate). 20 μl/well DMSO is added to all remaining wells.
5 mM compound solutions are added by addition of 5 μl of 30 mM compound to 25 μl DMSO in Columns 2 and 14 of plate. 1.5 mM reference control is prepared by addition of 1.5 μl of 30 mM JAK3 Inhibitor VI to 28.5 μl DMSO in Well P14.
Serial dilution is then performed by the following steps: (i) Compounds in Column 2 are mixed by pipetting 20 μl up and down 6X; (ii) 10 μl/well compounds in DMSO are transferred from one column to the next column for Columns 2-11; (iii) wells are mixed by pipetting 20 μl up and down 6×; (iv) tips are washed 3×25 μl DMSO, 2×25 μl next DMSO; (v) steps i-iv repeated for Columns 14-23.
The following buffers are prepared:
Assay Buffer: 50 mM HEPES pH 7.6; 1 mM DTT; 10 mM MgCl2; 0.01% Triton X100; 0.01% BSA; and 0.1 mM EDTA.
Kinase in Assay Buffer: 450 ng/ml TYK2 KD (Cama Biosciences 08-147 Lot 06CBS-3022D).
Substrate/Detection Mixture (1×ATP) in Assay Buffer: 188 nM DyLight 647-Streptavidin (Pierce 21824); 5 μM Biotin-EQEDEPEGDYFEWLE (Lyn Substrate Peptide); 750 ng/ml Eu-anti-phospho-Tyrosine (PerkinElmer AD0069); 62.5 μM ATP; 80 nM Substrate Peptide (American Peptide Company 332722).
Substrate/Detection Mixture (20×ATP) in Assay Buffer: 188 nM DyLight 647-Streptavidin; 5 μM Biotin-EQEDEPEGDYFEWLE; 750 ng/ml Eu-anti-phospho-Tyrosine; 1250 μM ATP; 80 nM Substrate Peptide.
14.5 μl/well Enzyme Mix or Dilution Buffer (Background Controls) is added to Costar 384 well black plates.
Compound addition and mixture is performed by the following steps: (i) 0.5 μl/well DMSO/compounds in DMSO is transferred from Greiner 384-well polypropylene plate to a plate containing 14.5 μl/well Enzyme Mix and Dilution Buffer; (ii) mixed by pipetting 10 μl up and down 4×; (iii) tips are washed 4×10 μl in DMSO, 2×20 μl in other DMSO; (iv) steps i-iii are repeated until all plates are completed.
10 μl/well Substrate/Detection Mixtures is added and incubated at room temperature 2 hours (on shaker for first 2+ minutes).
10 μl/well 50 mM EDTA/0.01% Triton X100 is added and incubated >15 minutes at room temperature (on shaker for first 2+ minutes).
Plates are read at 665 nm and 620 nm emission on Analyst GT protocol HTRF_SP_A (Counts= 665/620×10000).
Background: TR-FRET usually uses a lanthanide donor and a delayed reading to cut background.

As to `NC(=O)c1nc(-c2cccnc2)nc2c1[nH]c(=O)n2[C@H]1CC[C@H](O)CC1` [Compound 50, 9-(trans-4-Hydroxycyclohexyl)-8-oxo-2-(pyridin-3-yl)-8,9-dihydro-7H-purine-6-carboxamide], the IC50 (commonly the midpoint of a concentration-inhibition curve) was in the range of 20.1 to 30 µM.
